Measured values reported in patent publication US20250270227A1, “CAMPTOTHECIN DERIVATIVE, AND PHARMACEUTICAL COMPOSITION AND USE THEREOF” (SIMCERE ZAIMING PHARMACEUTICAL CO., LTD., priority 2021, published 2025).

What was measured:
[1] = test system: Human colorectal cancer cell line HCT116; test: Test 1 of anti-proliferative activity against tumor cells (Cell-Titer Glo); assay type: cell-based; settings: Homo sapiens, HCT-116, 72 h, read-out: HCT116 Anti-proliferative activity IC50 (nM), HCT116 cells, cultured 3 days with compound, Cell-Titer Glo
Procedure: (§1) Cell culture: HCT116 cells and SKBR3 cells were cultured in McCoy's 5a medium containing 10% fetal bovine serum+1% penicillin-streptomycin at 37° C. and 5% CO2, and OVCAR3 cells were cultured in 1640 medium containing 20% fetal bovine serum+2 μg/mL bovine insulin+1% penicillin-streptomycin at 37° C. and 5% CO2. Cells in logarithmic growth phase were suitable for the experiment.
(§2) Detection of cell proliferation activity: The inhibitory activity of the compounds on the proliferation of the three cell lines HCT116, SKBR3 and OVCAR3 was detected using Cell-Titer Glo reagent. HCT116 cells (1500 cells per well), SKBR3 cells (3000 cells per well) and OVCAR3 cells (5000 cells per well) were seeded in 96-well plates and cultured at 37° C. and 5% CO2 for 24 h. The solution of the compound to be tested (the compound was dissolved in DMSO with the concentration of the compound being 1 mM, then the compound was diluted to 3 μM with DMSO, with 3-fold dilution and a total of 9 concentrations, and 10 μL of the prepared compound solution was transferred to a 96-well plate with the final concentration of 0-300 nM) was added. The cells were placed at 37° C. and 5% CO2 for further culture. HCT116 cells were cultured for 3 days, and SKBR3 cells and OVCAR3 cells were cultured for 5 days. The cell viability was detected by adding Cell-Titer Glo reagent.
(§3) Additionally, a negative control group and a positive control group were provided as Bottom and Top, respectively. In the negative control group, the cells were not added, only the same volume of medium was added, and other operations were consistent with those in the experimental group; in the positive control group, the test compound was not added, only the same volume of DMSO was added, and other operations were consistent with those in the experimental group.
(§4) Data analysis: The % compound inhibition was calculated, and fitting was performed to obtain IC50 of the compound.
(§5) % Compound inhibition=1−100%*(Signal−Bottom)/(Top−Bottom).
(§6) Signal represents the signal value of the experimental group, Bottom represents the average signal value of the negative control group, and Top represents the average signal value of the positive control group.

[2] = test system: human breast cancer cell line SKBR3; test: as above; assay type: cell-based; settings: Homo sapiens, SK-BR-3, 120 h, read-out: SKBR3 Anti-proliferative activity IC50 (nM), SKBR3 cells, cultured 5 days with compound, Cell-Titer Glo
Procedure: as §1, §2, §3, §4, §5, §6

SMILES | IC50 [1] | IC50 [2]
CC[C@@]1(O)C(=O)OCc2c1cc1n(c2=O)Cc2c-1nc1cc3c(cc1c2CNC(=O)CO)OCCO3 [Compound 1, (S)-N-((8-ethyl-8-hydroxy-9,12-dioxo-2,3,8,9,12,14-hexahydro-11H-[1,4]dioxino[2,3-g]pyrano[3′,4′:6,7]indolizino[1,2-b]quinolin-15-yl)methyl)-2-hydroxyacetamide] | 36.8 nM | 8.5 nM
CC[C@@]1(O)C(=O)OCc2c1cc1n(c2=O)Cc2c-1nc1cc(F)c(Cl)cc1c2CN [Compound 2, (S)-11-(aminomethyl)-9-chloro-4-ethyl-8-fluoro-4-hydroxy-1,12-dihydro-14H-pyrano[3′,4′:6,7]indolizino[1,2-b]quinoline-3,14(4H)-dione] | 3.6 nM | 2.5 nM
CC[C@@]1(O)C(=O)OCc2c1cc1n(c2=O)Cc2c-1nc1cc(F)c(Cl)cc1c2CNC(=O)CO [Compound 3, (S)-N-((9-chloro-4-ethyl-8-fluoro-4-hydroxy-3,14-dioxo-3,4,12, 14-tetrahydro-1H-pyrano[3′,4′:6,7]indolizino[1,2-b]quinolin-11-yl)methyl)-2-hydroxyacetamid] | 18.2 nM | 3.6 nM
CC[C@@]1(O)C(=O)OCc2c1cc1n(c2=O)Cc2c-1nc1cc(F)c(Br)cc1c2CN [Compound 4, (S)-11-(aminomethyl)-9-bromo-4-ethyl-8-fluoro-4-hydroxy-1,12-dihydro-14H-pyrano[3′,4′:6,7]indolizino[1,2-b]quinoline-3,14(4H)-dione] | 3.6 nM | 2.7 nM
CC[C@@]1(O)C(=O)OCc2c1cc1n(c2=O)Cc2c-1nc1cc(F)c(Br)cc1c2CNC(=O)CO [Compound 5, (S)-N-((9-bromo-4-ethyl-8-fluoro-4-hydroxy-3,14-dioxo-3,4, 12,14-tetrahydro-1H-pyrano[3′,4′:6,7]indolizino[1,2-b]quinolin-11-yl)methyl)-2-hydroxyacetamide] | 16.9 nM | 3.3 nM
CC[C@@]1(O)C(=O)OCc2c1cc1n(c2=O)Cc2c-1nc1ccc3c(c1c2CNC(=O)CO)CCC3 [Compound 7, (S)-N-((8-ethyl-8-hydroxy-9,12-dioxo-2,3,8,9,12,14-hexahydro-1H,11H-cyclopentadieno[f]pyrano[3′,4′:6,7]indolizino[1,2-b]quinolin-15-yl)methyl)-2-hydroxyacetamide] | 22.8 nM | 
CC[C@@]1(O)C(=O)OCc2c1cc1n(c2=O)Cc2c-1nc1cnc(Br)cc1c2CNC(=O)CO [Compound 15, (S)-N-((9-bromo-4-ethyl-4-hydroxy-3,14-dioxo-3,4,12,14-tetrahydro-1H-pyrano[3′,4′:6,7]indolizino[1,2-b][1,7]naphthyridin-11-yl)methyl)-2-hydroxyacetamide] | 81.3 nM | 
CC[C@@]1(O)C(=O)OCc2c1cc1n(c2=O)Cc2c-1nc1cc(Cl)c3occc3c1c2CNC(=O)CO [Compound 27, (S)-N-((4-chloro-8-ethyl-8-hydroxy-9,12-dioxo-8,9,12,14-tetrahydro-11H-furo[3,2-f]pyrano[3′,4′:6,7]indolizino[1,2-b]quinolin-15-yl)methyl)-2-hydroxyacetamide] | 24.3 nM | 
CC[C@@]1(O)C(=O)OCc2c1cc1n(c2=O)Cc2c-1nc1cc(Cl)c3occc3c1c2CNC(=O)C(O)C1CC1 (stereo partly drawn) [Compound 28, N-(((S)-4-chloro-8-ethyl-8-hydroxy-9,12-dioxo-8,9,12,14-tetrahydro-11H-furo[3,2-f]pyrano[3′,4′:6,7]indolizino[1,2-b]quinolin-15-yl)methyl)-2-cyclopropyl-2-hydroxyacetamide] | 8.8 nM | 
CC[C@@]1(O)C(=O)OCc2c1cc1n(c2=O)Cc2c-1nc1cc3c(c([N+](=O)[O-])c1c2CNC(=O)C(O)C1CC1)OCO3 (stereo partly drawn) [Compound 29, 2-cyclopropyl-N-(((S)-7-ethyl-7-hydroxy-15-nitro-8,11-dioxo-7,8,11,13-tetrahydro-10H-[1,3]dioxolo[4,5-g]pyrano[3′,4′:6,7]indolizino[1,2-b]quinolin-14-yl)methyl)-2-hydroxyacetamide] | 55.1 nM | 
